Patent US20040077617A1, “Fused cycloalkyl amides and acids and their therapeutic applications” (priority 2002, published 2004)

Legend:
CD-1 mice [1] = assay: Subcutaneous pentylenetetrazole (PTZ) Seizure Procedure; type: in vivo; conditions: Mus musculus; subcutaneous PTZ 85 mg/kg; male CD-1 mice; p.o. 30 minutes prior to PTZ; observed 15 minutes; linear regression; read-out: ED50 (dose at which 50% of the mice were protected from tonic seizures)
Protocol: (§1) Adult, male, CD-1 mice (22-25 grams) were obtained from Charles River Laboratories (Portage, Mich.) and housed at Abbott Laboratories (Abbott Park) under standard lighting conditions of 12 hours on/12 hours off, with lights on at 6 a.m. Food and water were provided ad libitum and mice weighed 25-35 grams at the time of testing.
(§2) Compounds were prepared for oral administration by suspending them in a vehicle of 100 μL Tween® 80 per mL hydroxypropyl methylcellulose (2 mg/mL, Abbott Laboratories). Compound solutions were administered at a volume of 10 mL/kg, p.o.
Subcutaneous pentylenetetrazole (PTZ) Seizure Procedure:
The method used was similar to that of E. A. Swinyard, General principles: Experimental selection, quantification and evaluation of anti-convulsants, Anti-epileptic Drugs, Third Edition, R. Levey, et al., Editors. 1989, Raven Press Ltd: New York. During the experiment the mice were housed individually in clear polycarbonate cages for observation. […] Seizures were induced by the subcutaneous injection of pentylenetetrazole (PTZ, 85 mg/kg) just below the nape of the neck. […] A total of 20 mice were used in each group. The ED50for the compounds were calculated using linear regression and represent the dose at which 50% of the mice were protected from tonic seizures.

CD-1 mice [2] = assay: Maximal Electroshock Procedure (protection from tonic seizures); type: in vivo; conditions: Mus musculus, po; maximal electroshock (50 mA, 0.4 second, corneal electrodes); male CD-1 mice; p.o. 30 minutes prior to stimulation; PROBIT analysis; read-out: ED50 (dose at which 50% of the mice were protected from tonic seizures)
Protocol: as §1, §2
Maximal Electroshock Procedure:
The method used was similar to that of E.A. Swinyard, General principles: Experimental selection, quantification and evaluation of anti-convulsants, Anti-epileptic Drugs, Third Edition, R. Levey, et al., Editors. 1989, Raven Press Ltd: New York. Mice were pretreated orally with compounds of the present invention 30 minutes prior to electrical stimulation. Electrical stimulation consisted of pulsed electrical current (50 mA, 0.4 second duration, pulse width 0.5 msec, 60 pulses/sec) applied via corneal electrodes to induce seizure. The stimulation was delivered with an ECT Unit (Ugo Basile #7801). […] The percent protection from tonic seizures was calculated by dividing the number of protected mice by the total number in the group. […]

| melting point [°C] | Structure (SMILES) | ED50 (CD-1 mice [1]) [µmol/kg] | ED50 (CD-1 mice [2]) [µmol/kg] |
| --- | --- | --- | --- |
| 86 | CC1(C)[C@@H]2CC3[C@H](C(=O)O)[C@@]3(C)C[C@@H]21 (stereo partly drawn) (hydrate or solvate) [Example 1, (1S,3S,4S,7R)-3,8,8-trimethyltricyclo[5.1.0.0^3,5]octane-4-carboxylic acid] | – | – |
| 121.5 to 122.5 | CC1(C)[C@@H]2CC3[C@H](C(N)=O)[C@@]3(C)C[C@@H]21 (stereo partly drawn) [Example 3, (1S,3S,4S,7R)-3,8,8-trimethyltricyclo[5.1.0.0^3,5]octane-4-carboxamide] | – | – |
| 169.2 to 169.7 | CC1(C)[C@@H]2CC3[C@H](C(=O)NCC(N)=O)[C@@]3(C)C[C@@H]21 (stereo partly drawn) [Example 4, (1S,3S,4S,7R)-N-(2-amino-2-oxoethyl)-3,8,8-trimethyltricyclo[5.1.0.0^3,5]octane-4-carboxamide] | – | – |
| – | CCCC(CCC)C(=O)O [Valproate] | 1800 | 1200 |
